Key:
Experiment in all cases: relative viability (nuclei count vs DMSO), 5 days (fraction); higher = more cells survive
[1] = compound: O=C(C[C@H]1NCCC[C@@H]1O)Cn1cnc2cc(Br)c(Cl)cc2c1=O (racemic) [Halofuginone] + Cc1cc(Nc2cc(N3CCN(C)CC3)nc(Sc3ccc(NC(=O)C4CC4)cc3)n2)n[nH]1 [Tozasertib] (partner 0.1 µM)
Summary of the method: (§1)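 Relative viability divides the nuclei count in treated wells by that in vehicle wells. Lung cancer cell lines were seeded in 1536-well plates, dosed by pin tool the next day, and fixed and stained after 5 days in one step with final 0.05% Triton X-100, 1% formaldehyde and 1 ug/ml Hoechst. Dosing was a single drug or a fixed anchor-drug dose plus five library-drug doses (not always all listed) in √10 steps, and values are medians of duplicate plates imaged at 4×.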

Cediranib + Crizotinib = compound: COc1cc2c(Oc3ccc4[nH]c(C)cc4c3F)ncnc2cc1OCCCN1CCCC1 [Cediranib] + C[C@@H](Oc1cc(-c2cnn(C3CCNCC3)c2)cnc1N)c1c(Cl)ccc(F)c1Cl [Crizotinib] (partner 1 µM)
Summary of the method: as §1

Decitabine + AZD7762 = compound: Nc1ncn([C@H]2C[C@H](O)[C@@H](CO)O2)c(=O)n1 [Decitabine] + NC(=O)Nc1cc(-c2cccc(F)c2)sc1C(=O)N[C@H]1CCCNC1 [AZD7762] (partner 0.2 µM)
Summary of the method: as §1

Decitabine + Pictilisib = compound: Nc1ncn([C@H]2C[C@H](O)[C@@H](CO)O2)c(=O)n1 [Decitabine] + CS(=O)(=O)N1CCN(Cc2cc3nc(-c4cccc5[nH]ncc45)nc(N4CCOCC4)c3s2)CC1 [Pictilisib] (partner 1 µM)
Summary of the method: as §1

Cell Line	relative viability ([1]; first compound 0.001 µM)	relative viability ([1]; first compound 0.003162 µM)	relative viability ([1]; first compound 0.01 µM)	relative viability ([1]; first compound 0.03162 µM)	relative viability ([1]; first compound 0.1 µM)	relative viability (Cediranib + Crizotinib; first compound 0.04 µM)	relative viability (Cediranib + Crizotinib; first compound 0.4 µM)	relative viability (Cediranib + Crizotinib; first compound 1.265 µM)	relative viability (Cediranib + Crizotinib; first compound 4 µM)	relative viability (Decitabine + AZD7762; first compound 0.04 µM)	relative viability (Decitabine + AZD7762; first compound 0.1265 µM)	relative viability (Decitabine + AZD7762; first compound 0.4 µM)	relative viability (Decitabine + AZD7762; first compound 1.265 µM)	relative viability (Decitabine + AZD7762; first compound 4 µM)	relative viability (Decitabine + Pictilisib; first compound 0.04 µM)	relative viability (Decitabine + Pictilisib; first compound 0.1265 µM)	relative viability (Decitabine + Pictilisib; first compound 0.4 µM)	relative viability (Decitabine + Pictilisib; first compound 1.265 µM)	relative viability (Decitabine + Pictilisib; first compound 4 µM)	relative viability (Cediranib + Crizotinib; first compound 0.1265 µM)
HOP-62	0.445	0.406	0.386	0.32	0.231	0.802	0.886	0.858	1.1	0.361	0.297	0.143	0.117	0.147	0.668	0.585	0.239	0.159	0.162	–
LC-2-ad	0.476	0.508	0.422	0.351	0.225	0.462	0.366	0.474	0.419	0.769	0.846	0.925	0.491	0.63	0.359	0.37	0.495	0.3	0.275	0.425
LCLC-97TM1	0.265	0.247	0.203	0.243	0.208	0.272	0.352	0.47	0.363	0.0916	0.108	0.0741	0.102	0.0907	0.145	0.166	0.0979	0.105	0.117	–
LCLC-103H	0.503	0.59	0.446	0.443	0.425	0.995	1.02	1.07	1.07	0.746	0.728	0.649	0.639	0.551	0.638	0.669	0.526	0.655	0.647	1.09
LK-2	0.163	0.164	0.184	0.16	0.181	0.19	0.247	0.25	0.257	0.299	0.37	0.288	0.256	0.14	–	0.607	0.505	0.401	0.396	0.222
LOU-NH91	0.7	0.791	0.642	0.705	0.576	0.739	0.713	0.727	0.653	0.735	0.847	0.732	0.72	0.73	0.518	0.478	0.517	0.518	0.495	0.767
LU99A	0.277	0.295	0.271	0.296	0.36	0.639	0.59	0.547	0.649	0.373	0.376	0.335	0.32	0.29	0.369	0.325	0.355	0.308	0.311	–
LXF-289	0.196	0.199	0.245	0.173	0.178	0.831	0.782	0.838	0.804	0.82	0.756	0.47	0.316	0.332	0.75	0.808	0.471	0.4	0.317	0.727
NCI-H23	0.387	0.399	0.383	0.387	0.265	0.472	0.557	0.518	0.597	0.196	0.271	0.154	0.131	0.162	0.528	0.59	0.281	0.266	0.196	–
NCI-H322M	0.461	0.468	0.462	0.467	0.258	0.894	0.887	0.904	0.945	0.546	0.619	0.478	0.445	0.501	0.408	0.537	0.53	0.397	0.424	1.05
NCI-H358	0.107	0.0894	0.095	0.0812	0.0809	0.546	0.637	0.567	0.428	0.554	0.527	0.413	0.272	0.328	0.315	0.335	0.352	0.313	0.25	0.641
NCI-H441	0.737	0.792	0.568	0.57	0.256	0.78	1.02	0.504	0.735	0.422	0.428	0.287	0.259	0.254	0.28	0.306	0.286	0.205	0.179	0.76
NCI-H460	0.611	0.572	0.438	0.444	0.19	0.867	0.815	0.889	0.935	0.576	0.593	0.361	0.134	0.105	0.389	0.549	0.524	0.373	0.334	0.906
NCI-H596	1.04	0.871	0.953	0.543	0.303	0.934	0.988	0.954	1.09	1.07	1.14	0.699	0.913	0.881	0.38	0.416	0.304	0.358	0.633	1.09
NCI-H647	0.441	0.324	0.267	0.171	0.0868	1.24	0.86	1.1	1.18	0.345	0.438	0.247	0.139	0.151	0.504	0.566	0.42	0.191	0.214	1.03
NCI-H650	0.912	0.772	0.709	0.67	0.426	0.7	0.612	0.835	0.639	0.775	0.618	0.427	0.388	0.346	0.81	0.779	0.574	0.443	0.33	0.757

Cell Line	relative viability ([1]; first compound 0.001 µM)	relative viability ([1]; first compound 0.003162 µM)	relative viability ([1]; first compound 0.01 µM)	relative viability ([1]; first compound 0.03162 µM)	relative viability ([1]; first compound 0.1 µM)	relative viability (Cediranib + Crizotinib; first compound 0.04 µM)	relative viability (Cediranib + Crizotinib; first compound 0.4 µM)	relative viability (Cediranib + Crizotinib; first compound 1.265 µM)	relative viability (Cediranib + Crizotinib; first compound 4 µM)	relative viability (Decitabine + AZD7762; first compound 0.04 µM)	relative viability (Decitabine + AZD7762; first compound 0.1265 µM)	relative viability (Decitabine + AZD7762; first compound 0.4 µM)	relative viability (Decitabine + AZD7762; first compound 1.265 µM)	relative viability (Decitabine + AZD7762; first compound 4 µM)	relative viability (Decitabine + Pictilisib; first compound 0.04 µM)	relative viability (Decitabine + Pictilisib; first compound 0.1265 µM)	relative viability (Decitabine + Pictilisib; first compound 0.4 µM)	relative viability (Decitabine + Pictilisib; first compound 1.265 µM)	relative viability (Decitabine + Pictilisib; first compound 4 µM)	relative viability (Cediranib + Crizotinib; first compound 0.1265 µM)
NCI-H727	0.706	0.778	0.578	0.615	0.33	0.927	0.876	0.671	0.736	0.562	0.588	0.427	0.462	0.574	0.272	0.353	0.316	0.418	0.257	0.758
NCI-H838	0.257	0.315	0.256	0.214	0.212	0.798	0.817	0.811	0.748	0.74	0.753	0.815	0.68	0.659	0.415	0.357	0.308	0.24	0.226	0.898
NCI-H1355	0.667	0.533	0.538	0.527	0.488	1.1	1.08	0.992	1.31	0.442	0.473	0.376	0.267	0.241	0.529	0.44	0.293	0.254	0.23	0.977
NCI-H1437	0.407	0.387	0.425	0.393	0.399	0.966	0.823	0.892	0.879	1.1	0.962	0.758	0.61	0.391	0.455	0.408	0.287	0.172	0.166	0.87
NCI-H1651	1.03	0.773	0.702	0.471	0.352	0.887	0.876	0.89	0.976	0.43	0.446	0.336	0.341	0.355	0.481	0.598	0.624	0.503	0.434	0.904
NCI-H1666	0.656	0.644	0.56	0.596	0.704	1.02	0.896	1.01	0.874	0.826	0.872	0.696	0.787	0.763	0.458	0.478	0.387	0.319	0.372	1.02
NCI-H1734	0.226	0.267	0.278	0.291	0.251	0.604	0.551	0.691	0.695	0.417	0.51	0.501	0.209	0.209	0.442	0.453	0.443	0.342	0.312	0.612
NCI-H1755	0.591	0.569	0.567	0.591	0.461	0.888	0.838	0.855	0.848	0.634	0.463	0.56	0.467	0.419	0.385	0.411	0.291	0.365	0.343	0.845
NCI-H1915	0.463	0.462	0.416	0.448	0.299	1.01	0.883	0.873	0.832	0.296	0.266	0.217	0.195	0.201	0.814	0.662	0.387	0.295	0.304	0.851
NCI-H1944	0.264	0.282	0.243	0.237	0.196	1.14	0.994	1.05	1.06	0.331	0.289	0.29	0.218	0.231	0.353	0.424	0.369	0.319	0.299	1.03
NCI-H1975	1.04	0.848	0.737	0.354	0.13	1.16	0.92	1.02	0.913	0.451	0.451	0.441	0.465	0.403	0.293	0.254	0.226	0.238	0.218	1.05
NCI-H1993	0.56	0.52	0.565	0.545	0.532	0.968	0.886	0.865	0.858	0.654	0.796	0.644	0.641	0.703	0.866	0.973	0.788	0.9	0.725	0.902
NCI-H2085	0.959	0.877	0.729	0.847	0.716	0.888	0.876	0.813	0.868	0.757	0.852	0.655	0.527	0.615	0.454	0.462	0.408	0.403	0.404	0.927
NCI-H2087	0.28	0.322	0.251	0.23	0.114	0.926	0.807	0.838	0.912	0.853	0.719	0.58	0.493	0.499	0.762	0.779	0.519	0.404	0.336	0.868
NCI-H2126	0.918	0.845	0.859	0.793	0.62	1.04	0.986	0.994	1.01	0.874	0.938	0.577	0.713	0.591	0.517	0.543	0.463	0.39	0.438	1.07
NCI-H2170	0.731	0.678	0.812	0.679	0.728	1.45	1.05	1.13	1.37	0.412	0.52	0.554	0.268	0.245	0.256	0.254	0.312	0.285	0.269	1.42
